# Test results reported in patent publication US6475996B1, “Use of a vector expressing DNA polymerase β as medicine” (Centre National De La Recherche Scientifique (CNRS), priority 1996, dated 2002).
# Experiments:
# [1] = molecular target: T1, pol β (Rattus norvegicus, UniProt P06766); test: DNA replication test with extracts of pol β-transfected B16 cells; type: biochemical; details: extracts of B16 cells transfected with pUT-pol β
# T1 construct: expressed in transfected cells; host or cells: B16 mouse melanoma cells transfected with pUT-pol β; cell extracts
# [2] = system: E. coli SC 18-12; test: Functionality check of pZHTkβ: survival of E. coli SC 18-12; type: cell-based; details: Zeocine 25 μg/ml
# Description: The functionality of the construct was checked using E. coli bacterial strains,
# 1—either by transforming the strain SC 18-12 for the expression of pol β,
# [3] = molecular target: DNA polymerase β (Homo sapiens, UniProt P06746); details: in vitro, compared with dCMP (Copeland et al., 1992); cited from earlier work
smiles,measurement,setting,value
Nc1ccn([C@H]2CC[C@@H](COP(=O)(O)OP(=O)(O)OP(=O)(O)O)O2)c(=O)n1 [triphosphorylated ddC],In vitro incorporation into the G-rich nucleotide substrate,[1],allowed an in vitro incorporation
Cc1c(N)nc([C@H](CC(N)=O)NC[C@H](N)C(N)=O)nc1C(=O)N[C@H](C(=O)N[C@H](C)[C@@H](O)[C@H](C)C(=O)N[C@H](C(=O)NCCC1=N[C@@H](c2nc(C(=O)NCCCCN=C(N)N)cs2)CS1)[C@@H](C)O)[C@@H](O[C@@H]1O[C@@H](CO)[C@@H](O)[C@H](O)[C@@H]1O[C@H]1O[C@H](CO)[C@@H](O)[C@H](OC(N)=O)[C@@H]1O)c1cnc[nH]1 [Zeocine],Survival (%),[2]; SC 18-12/pZHTkβ,97%
same,Survival (%),[2]; SC 18-12 non-transformed,5%
Nc1ccn([C@H]2CC[C@@H](COP(=O)(O)O)O2)c(=O)n1 [ddCMP],Efficacy of incorporation by DNA polymerase β,[3],comparable to that observed for the incorporation of the natural antagonist dCMP
